In brackets after ≈: the same amount, converted by molar mass. Like-named read-outs stand apart in the source and are kept apart here.
What was measured:
[1] = molecular target: DHPS enzyme (dihydropteroate synthase) (Bacillus anthracis, UniProt Q81VW8); experiment: biochemical; settings: for inhibition at 0.1 µg/mL / inhibition at 1 µg/mL / inhibition at 10 µg/mL / inhibition at 100 µg/mL: read-out: Inhibition % against DHPS enzyme
S. mutans = experiment: MIC, twofold serial dilution, S. mutans; assay type: cell-based; settings: Streptococcus mutans; twofold serial dilution in broth, 37 °C 16–20 h; read-out: The Minimum Inhibitory Concentration (MIC), S. mutans
S. aureus = experiment: MIC, twofold serial dilution, S. aureus; assay type: cell-based; settings: Staphylococcus aureus; twofold serial dilution in broth, 37 °C 16–20 h; read-out: The Minimum Inhibitory Concentration (MIC), S. aureus
Experimental: The new synthetic compounds, 6a–c, 12a–c, 14a–c, 16a–c and 19a–e, were tested in vitro to evaluate antibacterial activities against Gram-negative and Gram-positive bacteria, such as E. coli (ATCC: 3008), K. pneumonia (ATCC: 4415) and P. aeruginosa (ATCC: 27853), as an example for Gram-negative bacteria, as well as S. aureus (ATCC: 6538) and S. mutans (ATCC: 25175) for Gram-positive bacteria. The antifungal activities were evaluated also for the novel compounds in vitro against C. albicans (ATCC: 10231). The antibacterial and antifungal activities were determined by the agar-diffusion method using gentamicin, ampicillin and sulfadiazine, example of sulfa drug, as standard drugs against Gram-negative and Gram-positive, while nystatin was used as standard drug against the fungal strain. Table 1 summarizes the results for all tested compounds as the average diameter of inhibition zones of microbial growth around the discs in mm ± SD.
For each strain, three to five isolated colonies were selected from the fresh agar plate and were transferred into a tube containing 3–4 mL of sterile broth medium. The bacterial suspension was mixed well and incubated at 35–37 °C for 2–6 h. The turbidity of the bacterial suspension should be equal to or greater than the turbidity of a McFarland Standard 0.5. After that, 1 mg of the tested compound (antimicrobial agent) was dissolved in 1 mL DMSO and two-fold serial dilution was done using broth medium. A fixed volume of the prepared bacterial inoculum was added to each tube and incubated for at 37 °C 16–20 h. The MIC is defined as the lowest concentration of the antimicrobial agent that inhibits visible growth of the tested isolate as observed with the unaided eye.

[2] = tested on: P. aeruginosa (ATCC: 27853); experiment: Agar well diffusion, inhibition zone, P. aeruginosa; assay type: cell-based; settings: for zone of inhibition at 15000 µg/mL: Pseudomonas aeruginosa, read-out: Diameter of the Inhibition Zone, P. aeruginosa
S. mutans (ATCC: 25175) = experiment: Agar well diffusion, inhibition zone, S. mutans; assay type: cell-based; settings: Streptococcus mutans; agar well diffusion, 15 mg/mL, 100 μL per well, 37 °C 24 h, mean ± SD, triplicate; read-out: Diameter of the Inhibition Zone, S. mutans
K. pneumonia = experiment: MIC, twofold serial dilution, K. pneumonia; assay type: cell-based; settings: Klebsiella pneumoniae, read-out: The Minimum Inhibitory Concentration (MIC), K. pneumonia
S. aureus (ATCC: 6538) = experiment: Agar well diffusion, inhibition zone, S. aureus; assay type: cell-based; settings: Staphylococcus aureus; agar well diffusion, 15 mg/mL, 100 μL per well, 37 °C 24 h, mean ± SD, triplicate; read-out: Diameter of the Inhibition Zone, S. aureus
[3] = tested on: K. pneumonia (ATCC: 4415); experiment: Agar well diffusion, inhibition zone, K. pneumonia; assay type: cell-based; settings: for zone of inhibition at 15000 µg/mL: Klebsiella pneumoniae, read-out: Diameter of the Inhibition Zone, K. pneumonia
P. aeruginosa = experiment: MIC, twofold serial dilution, P. aeruginosa; assay type: cell-based; settings: Pseudomonas aeruginosa, read-out: The Minimum Inhibitory Concentration (MIC), P. aeruginosa
E. coli (ATCC: 3008) = experiment: Agar well diffusion, inhibition zone, E. coli; assay type: cell-based; settings: for zone of inhibition at 15000 µg/mL: Escherichia coli, read-out: Diameter of the Inhibition Zone, E. coli
[4] = tested on: C. albicans (ATCC: 10231); experiment: Agar well diffusion, inhibition zone, C. albicans; assay type: cell-based; settings: Candida albicans, 15 mg/mL, 100 μL per well, mean ± SD, triplicate, read-out: Diameter of the Inhibition Zone, C. albicans
[5] = agar well diffusion, 15 mg/mL, 100 μL per well, 37 °C 24 h, mean ± SD, triplicate
[6] = twofold serial dilution in broth, 37 °C 16–20 h

DHPS enzyme (dihydropteroate synthase), sequence (Q81VW8 1-280): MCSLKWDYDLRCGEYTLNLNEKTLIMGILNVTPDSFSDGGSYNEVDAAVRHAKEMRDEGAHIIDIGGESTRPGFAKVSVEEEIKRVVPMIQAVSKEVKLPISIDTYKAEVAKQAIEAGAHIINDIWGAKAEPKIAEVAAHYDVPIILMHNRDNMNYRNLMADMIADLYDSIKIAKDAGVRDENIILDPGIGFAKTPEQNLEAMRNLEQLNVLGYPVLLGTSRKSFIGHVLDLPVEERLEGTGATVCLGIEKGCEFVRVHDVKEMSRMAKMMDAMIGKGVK

SMILES | IC50 [1] | inhibition at 0.1 µg/mL ([1]; 0.1 μg/mL) | inhibition at 1 µg/mL ([1]; 1 μg/mL) | inhibition at 10 µg/mL ([1]; 10 μg/mL) | inhibition at 100 µg/mL ([1]; 100 μg/mL) | MIC (S. mutans) | MIC (S. aureus) | zone of inhibition at 15000 µg/mL [2, 5] | zone of inhibition at 15000 µg/mL (S. mutans (ATCC: 25175)) | MIC (K. pneumonia; [6]) | zone of inhibition at 15000 µg/mL (S. aureus (ATCC: 6538)) | melting point | zone of inhibition at 15000 µg/mL [3, 5] | MIC (P. aeruginosa; [6]) | Diameter of the Inhibition Zone, E. coli (E. coli (ATCC: 3008); [5]) | zone of inhibition at 15000 µg/mL [4] | also measured
Cc1ccc(S(=O)(=O)NNC(=O)/C(=C/c2ccc(Cl)cc2)c2nc3ccccc3s2)cc1 [Compound 14b] | 34.6 µM | 12% | 24% | 47% | 65% | 258 µM (≈ 125 µg/mL) | 129 µM (≈ 62.4 µg/mL) | 24.3 ± 0.6 mm | 21.6 ± 0.6 mm | 1030 µM (≈ 500 µg/mL) | 31.6 ± 0.6 mm | 188 to 189 °C | 15.6 ± 0.6 mm | 517 µM (≈ 250 µg/mL) | - |  | 
O=c1[nH][nH]c(-c2ccc(F)cc2)c1-c1nc2ccccc2s1 [Compound 16a, 4-(Benzo[d]thiazole-2-yl)-5-(4-florophenyl)-1H-pyrazol-3(2H)-one] | 35.9 µM | 12% | 26% | 49% | 70% | 200 µM (≈ 62.3 µg/mL) | 1610 µM (≈ 500 µg/mL) | 16.6 ± 0.5 mm | 25 ± 0.6 mm | 803 µM (≈ 250 µg/mL) | 15.3 ± 0.5 mm | 238 to 240 °C | 17.3 ± 0.6 mm | 1610 µM (≈ 500 µg/mL) | - | 12.3 ± 0.5 mm | 
O=c1[nH][nH]c(-c2ccc(Cl)cc2)c1-c1nc2ccccc2s1 [Compound 16b, 4-(Benzo[d]thiazole-2-yl)-5-(4-chlorophenyl)-1H-pyrazol-3(2H)-one] | 23.9 µM | 16% | 31% | 52% | 72% | 191 µM (≈ 62.6 µg/mL) | 191 µM (≈ 62.6 µg/mL) | 25.6 ± 0.6 mm | 24.6 ± 0.6 mm |  | 35.3 ± 0.6 mm | 236 to 237.5 °C |  | 762 µM (≈ 250 µg/mL) | - | 10.6 ± 0.5 mm | Diameter of the Inhibition Zone, K. pneumonia [3, 5]: -
Cc1ccc(-c2[nH][nH]c(=O)c2-c2nc3ccccc3s2)cc1 [Compound 16c, 4-(Benzo[d]thiazole-2-yl)-5-(p-tolyl)-1H-pyrazol-3(2H)-one] | 35.9 µM | 13% | 31% | 48% | 68% | 203 µM (≈ 62.4 µg/mL) | 25 µM (≈ 7.68 µg/mL) |  | 31.3 ± 0.6 mm | 813 µM (≈ 250 µg/mL) | 40.3 ± 0.6 mm | 239 to 241 °C | 24.3 ± 0.6 mm |  | - |  | Diameter of the Inhibition Zone, P. aeruginosa [2, 5]: -
CNC(C)C1CCC(N)C(OC2C(N)CC(N)C(OC3OCC(C)(O)C(NC)C3O)C2O)O1 (stereo not shown) [Gentamicin, reference compound] |  |  |  |  |  |  |  |  |  |  |  |  |  |  |  |  | zone of inhibition at 15000 µg/mL ([2]; 24 h): 30 ± 0.5 mm; MIC (K. pneumonia): 65 µM (≈ 31 µg/mL); zone of inhibition at 15000 µg/mL ([3]; 24 h): 25 ± 0.5 mm; MIC (P. aeruginosa): 131 µM (≈ 62.6 µg/mL); zone of inhibition at 15000 µg/mL (E. coli (ATCC: 3008); 24 h): 27 ± 0.5 mm
Nc1ccc(S(=O)(=O)Nc2ncccn2)cc1 [Sulfadiazine, reference compound] | 28.5 µM |  |  |  |  | 499 µM (≈ 125 µg/mL) | 2000 µM (≈ 500 µg/mL) | 20.6 ± 1.4 mm | 22.2 ± 1.1 mm | 999 µM (≈ 250 µg/mL) | 21.5 ± 0.6 mm |  | 15.9 ± 0.9 mm | 999 µM (≈ 250 µg/mL) |  |  | inhibition at 0.1 µg/mL [1]: 11%; inhibition at 1 µg/mL [1]: 26%; inhibition at 10 µg/mL [1]: 56%; inhibition at 100 µg/mL [1]: 75%; zone of inhibition at 15000 µg/mL (E. coli (ATCC: 3008); [5]): 21.4 ± 0.4 mm

— PMC9774648, “Synthesis, Physicochemical Properties and Molecular Docking of New Benzothiazole Derivatives as Antimicrobial Agents Targeting DHPS Enzyme” (Antibiotics, 2022)
